Data: patent US20250154198A1, “PEPTIDE INHIBITORS OF INTERLEUKIN-23 RECEPTOR” (Zealand Pharma A/S, priority 2021, published 2025)
*1 amine or outer side, *2 acyl side, *3 side chain or, on linkers, in order; H or OH if unused. Where a SMILES comes first, the peptide text is derived from it. Bridges are numbered along the chain shown (N, C = ends). [ ]: non-standard residue; d: D form. The star is where a group is joined. Me3N+(CH2)2O(CH2)2O(CH2)2CO = C[N+](C)(C)CCOCCOCCC(=O)*; αMeAla(3-pyridyl) = C[C@](N)(Cc1cccnc1)C(=O)O; Phe(3,4-Me2) = Cc1ccc(C[C@H](N)C(=O)O)cc1C; Bip = N[C@@H](Cc1ccc(-c2ccccc2)cc1)C(=O)O; dPhe(4-F) = N[C@H](Cc1ccc(F)cc1)C(=O)O; 2Nal = N[C@@H](Cc1ccc2ccccc2c1)C(=O)O; AEF = NCCOc1ccc(C[C@H](N)C(=O)O)cc1; X1 = O=C(Cc1ccc(CN[*:1])cc1)[*:2]; 3Pal = N[C@@H](Cc1cccnc1)C(=O)O; d3Pal = N[C@H](Cc1cccnc1)C(=O)O; αMeL = CC(C)C[C@](C)(N)C(=O)O; CH2COCH2 = O=C(C[*:1])C[*:2]; Phg = N[C@H](C(=O)O)c1ccccc1; αMeV = CC(C)[C@](C)(N)C(=O)O; 3Amb = NCc1cccc(C(=O)O)c1; dDab = NCC[C@@H](N)C(=O)O; Dab = NCC[C@H](N)C(=O)O

Test system: not listed separately
Experiment: Peptide stability in simulated intestinal fluid (SIF)
Assay type: in vitro ADME
Settings: Table 3-2, porcine pancreatin, pH 6.8, 37° C., 10 μM, 4 h
Experimental: Determination of Peptide Stability in Simulated Gastric Fluid (SGF) and Simulated Intestinal Fluid (SIF)
SGF was prepared by dissolving sodium chloride (0.2 g) in 50 mL of water. A volume of 0.7 mL of 10 M HCl was added to adjust the pH of the solution to 1.2 and the volume made up to 100 mL with water. […] SIF was prepared by dissolving monobasic potassium phosphate (0.68 g) in 50 mL of water and adjusting the pH to 6.8 with 1 M NaOH. The volume was subsequently made up to 100 mL with water. 200 mg porcine pancreatin (P1625, Sigma Aldrich) was gently dissolved into 20 mL preheated (37° C.) solution (10 g/L) immediately prior to the incubation.
The incubation was performed at 37° C. with gentle shaking. […] After the last timepoint, the sampling plate was mixed for 10 min on a shaking table and centrifuged 10 min at 2200 g. 70 μL resulting supernatant was diluted with 150 μL water, mixed and centrifugated before analysis by liquid chromatography high resolution mass spectrometry. […] Percent remaining at each timepoint was calculated relative to timepoint zero based on absolute peak areas.

| SMILES | SIF (% remaining 4 h) |
| --- | --- |
| CC(C)C[C@@H]1NC(=O)[C@H](Cc2c[nH]c3ccccc23)NC(=O)[C@H](Cc2c[nH]c3ccccc23)NC(=O)[C@@H]2CSCC(=O)CSC[C@H](NC(=O)[C@H]([C@@H](C)O)NC(=O)[C@@H](NC(=O)CN)CSCC(=O)CSC[C@@H](C(=O)N[C@@H](CO)C(N)=O)NC1=O)C(=O)N[C@@H](Cc1c[nH]c3ccccc13)C(=O)N[C@@H](CCC(=O)O)C(=O)N2 (single isomer, unassigned) [I1 (isomer 3), H-GC(1a)TC(2a)WEC(2a)WWLC(1a)S-[NH2], reference compound] | 0% |

Same assay, conditions: pig, simulated intestinal fluid (SIF) with porcine pancreatin, Table 3-2, porcine pancreatin, pH 6.8, 37° C., 10 μM, 1 h, read-out: SIF (% remaining 1 h)

| remaining at 1 h, 10 μM | SMILES |
| --- | --- |
| 2% | CC(=O)N[C@H]1CCCCNC(=O)CC[C@@H](C(=O)N[C@@H](CCCNC(=N)N)C(N)=O)NC(=O)[C@](C)(CC(C)C)NC(=O)[C@H](Cc2ccc3ccccc3c2)NC(=O)[C@H](Cc2ccc(OCCN)cc2)NC(=O)[C@@H]2CSCC(=O)CSC[C@H](NC(=O)[C@H](CO)NC1=O)C(=O)N[C@@H](Cc1c[nH]c3ccccc13)C(=O)N[C@@H](CCC(N)=O)C(=O)N2 [Compound 47, [Ac]-K(1c)SC(2a)WQC(2a)[Y(2-aminoethoxy)][2-Nal][2-Me-Leu]E(1c)R-[NH2]] (Ac-KSCWQC[AEF][2Nal][αMeL]ER-NH2; lactam 1-10; linker 3-6 via CH2COCH2) |

Same assay, conditions: pig, simulated intestinal fluid (SIF) with porcine pancreatin, Table 3-2, porcine pancreatin, pH 6.8, 37° C., 10 μM, 4 h, read-out: SIF (% remaining 4 h)

| remaining at 4 h, 10 μM | SMILES |
| --- | --- |
| 0% | CC(=O)N[C@H]1CCCCNC(=O)CC[C@@H](C(=O)N[C@@H](CCCNC(=N)N)C(N)=O)NC(=O)[C@](C)(CC(C)C)NC(=O)[C@H](Cc2ccc3ccccc3c2)NC(=O)[C@H](Cc2ccc(OCCN)cc2)NC(=O)[C@@H]2CSCC(=O)CSC[C@H](NC(=O)[C@H](CO)NC1=O)C(=O)N[C@@H](Cc1c[nH]c3ccccc13)C(=O)N[C@@H](CCC(N)=O)C(=O)N2 [Compound 47, [Ac]-K(1c)SC(2a)WQC(2a)[Y(2-aminoethoxy)][2-Nal][2-Me-Leu]E(1c)R-[NH2]] (Ac-KSCWQC[AEF][2Nal][αMeL]ER-NH2; lactam 1-10; linker 3-6 via CH2COCH2) |
| 62% | CC[C@H](C)[C@@H]1NC(=O)Cc2ccc(cc2)CNC(=O)CC[C@@H](C(=O)N[C@@H](CCN)C(=O)N[C@@](C)(Cc2cccnc2)C(N)=O)NC(=O)[C@](C)(C(C)C)NC(=O)[C@H](Cc2ccc(C)c(C)c2)NC(=O)[C@@H](Cc2ccc(F)cc2)NC(=O)[C@@H]2CCNC(=O)CC[C@H](NC1=O)C(=O)N[C@@H](Cc1c[nH]c3ccccc13)C(=O)N[C@@H](CCC(N)=O)C(=O)N2 [Compound 170, [4-Aminomethyl-phenylacetyl](1c)*IE(2c)WQ[Dab](2c)[{d}F(4-F)][F(3,4-Me)][2-Me-Val]E(1c)[Dab][2-Me-3-(3-Pyridyl)-Ala]-[NH2]] ([X1]IEWQ[Dab][dPhe(4-F)][Phe(3,4-Me2)][αMeV]E[Dab][αMeAla(3-pyridyl)]-NH2; lactam 3-6, N-10) |
| 104% | CC[C@H](C)[C@@H]1NC(=O)Cc2ccc(cc2)CNC(=O)CC[C@@H](C(=O)N[C@@H](CCN)C(=O)N[C@@](C)(Cc2cccnc2)C(N)=O)NC(=O)[C@](C)(C(C)C)NC(=O)[C@H](Cc2ccc(C)c(C)c2)NC(=O)[C@H](Cc2ccc(-c3ccccc3)cc2)NC(=O)[C@@H]2CCNC(=O)CC[C@H](NC1=O)C(=O)N[C@@H](Cc1c[nH]c3ccccc13)C(=O)N[C@@H](CCC(N)=O)C(=O)N2 [Compound 168, [4-Aminomethyl-phenylacetyl](1c)*IE(2c)WQ[Dab](2c)[Bip][F(3,4-Me)][2-Me-Val]E(1c)[Dab][2-Me-3-(3-Pyridyl)-Ala]-[NH2]] ([X1]IEWQ[Dab][Bip][Phe(3,4-Me2)][αMeV]E[Dab][αMeAla(3-pyridyl)]-NH2; lactam 3-6, N-10) |
| 86% | CC[C@H](C)[C@@H]1NC(=O)Cc2ccc(cc2)CNC(=O)CC[C@@H](C(=O)N[C@@H](CCN)C(=O)N[C@@](C)(Cc2cccnc2)C(N)=O)NC(=O)[C@](C)(C(C)C)NC(=O)[C@H](Cc2ccc(C)c(C)c2)NC(=O)[C@H](c2ccccc2)NC(=O)[C@@H]2CCNC(=O)CC[C@H](NC1=O)C(=O)N[C@@H](Cc1c[nH]c3ccccc13)C(=O)N[C@@H](CCC(N)=O)C(=O)N2 [Compound 174, [4-Aminomethyl-phenylacetyl](1c)*IE(2c)WQ[Dab](2c)[Phg][F(3,4-Me)][2-Me-Val]E(1c)[Dab][2-Me-3-(3-Pyridyl)-Ala]-[NH2]] ([X1]IEWQ[Dab][Phg][Phe(3,4-Me2)][αMeV]E[Dab][αMeAla(3-pyridyl)]-NH2; lactam 3-6, N-10) |

Biological target: T1, human IL-23R (Homo sapiens, UniProt Q5VWK5)
T1 construct: UniProtKB—Q5VWK5, amino acids 22-629; secretion signal of the plasmid (Promega N1371); expressed in transfected cells
T1 sequence (Q5VWK5 22-629): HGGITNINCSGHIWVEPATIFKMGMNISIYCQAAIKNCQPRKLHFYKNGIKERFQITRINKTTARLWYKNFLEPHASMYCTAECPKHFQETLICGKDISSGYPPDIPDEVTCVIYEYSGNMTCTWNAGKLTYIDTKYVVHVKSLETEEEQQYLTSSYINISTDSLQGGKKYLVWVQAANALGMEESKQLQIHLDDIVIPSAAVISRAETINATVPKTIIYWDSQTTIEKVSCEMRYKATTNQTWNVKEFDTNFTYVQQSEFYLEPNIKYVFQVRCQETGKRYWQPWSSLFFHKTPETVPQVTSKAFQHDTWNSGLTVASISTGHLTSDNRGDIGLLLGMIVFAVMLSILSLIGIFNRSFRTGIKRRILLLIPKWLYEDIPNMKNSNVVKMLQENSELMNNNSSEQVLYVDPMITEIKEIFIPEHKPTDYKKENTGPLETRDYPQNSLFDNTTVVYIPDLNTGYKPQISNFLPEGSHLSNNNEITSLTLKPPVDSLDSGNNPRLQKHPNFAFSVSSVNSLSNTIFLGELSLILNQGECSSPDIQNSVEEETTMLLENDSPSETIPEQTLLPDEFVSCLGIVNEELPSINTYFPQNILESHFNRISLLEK
Experiment: Binding assay (NanoBRET displacement of fluorophore-labelled reference compound) for estimating binding affinity to human IL-23R
Settings: Table 3-1; read-out: Ki hIL-23R

| Ki | SMILES |
| --- | --- |
| 0.0272 nM | CC[C@H](C)[C@@H]1NC(=O)Cc2ccc(cc2)CNC(=O)CC[C@@H](C(=O)NCC(=O)N[C@@H](Cc2cccnc2)C(N)=O)NC(=O)[C@](C)(C(C)C)NC(=O)[C@H](Cc2ccc(C)c(C)c2)NC(=O)[C@H](Cc2ccc(OCCN)cc2)NC(=O)[C@@H]2CCNC(=O)CC[C@H](NC1=O)C(=O)N[C@@H](Cc1c[nH]c3ccccc13)C(=O)N[C@@H](CCC(N)=O)C(=O)N2 [Compound 158, [4-Aminomethyl-phenylacetyl](1c)*IE(2c)WQ[Dab](2c)[Y(2-aminoethoxy)][F(3,4-Me)][2-Me-Val]E(1c)G[3-(3-Pyridyl)-Ala]-[NH2]] ([X1]IEWQ[Dab][AEF][Phe(3,4-Me2)][αMeV]EG[3Pal]-NH2; lactam 3-6, N-10) |
| 0.718 nM | CC(C)C[C@]1(C)NC(=O)[C@H](Cc2ccc3ccccc3c2)NC(=O)[C@H](Cc2ccc(OCCN)cc2)NC(=O)[C@@H]2CCNC(=O)CC[C@H](NC(=O)[C@H](C(C)C)NC(=O)Cc3ccc(cc3)CNC(=O)CC[C@@H](C(=O)N[C@@H](CCN)C(N)=O)NC1=O)C(=O)N[C@@H](Cc1c[nH]c3ccccc13)C(=O)N[C@@H](CCC(N)=O)C(=O)N2 [Compound 126, [4-Aminomethyl-phenylacetyl](1c)*VE(2c)WQ[Dab](2c)[Y(2-aminoethoxy][2-Nal][2-Me-Leu]E(1c)[Dab]-[NH2]] ([X1]VEWQ[Dab][AEF][2Nal][αMeL]E[Dab]-NH2; lactam 3-6, N-10) |
| 0.188 nM | CC(C)C[C@]1(C)NC(=O)[C@H](Cc2ccc3ccccc3c2)NC(=O)[C@H](Cc2ccc(OCCN)cc2)NC(=O)[C@@H]2CSCC(=O)CSC[C@H](NC(=O)[C@H](CO)NC(=O)Cc3ccc(cc3)CNC(=O)CC[C@@H](C(=O)N[C@H](Cc3c[nH]cn3)C(N)=O)NC1=O)C(=O)N[C@@H](Cc1c[nH]c3ccccc13)C(=O)N[C@@H](CCC(N)=O)C(=O)N2 [Compound 117, [4-Aminomethyl-phenylacetyl](1c)*SC(2a)WQC(2a)[Y(2-aminoethoxy)][2-Nal][2-Me-Leu]E(1c)[{d}H]-[NH2]] ([X1]SCWQC[AEF][2Nal][αMeL]E[dH]-NH2; linker 3-6 via CH2COCH2; lactam N-10) |
| 0.597 nM | CC(C)C[C@]1(C)NC(=O)[C@H](Cc2ccc3ccccc3c2)NC(=O)[C@H](Cc2ccc(OCCN)cc2)NC(=O)[C@@H]2CSCC(=O)CSC[C@H](NC(=O)[C@H](CO)NC(=O)c3cccc(c3)CNC(=O)CC[C@@H](C(=O)N[C@@H](CCCNC(=N)N)C(=O)N[C@H](Cc3cccnc3)C(N)=O)NC1=O)C(=O)N[C@@H](Cc1c[nH]c3ccccc13)C(=O)N[C@@H](CCC(N)=O)C(=O)N2 [Compound 150, [(3-Aminomethyl)benzoyl](1c)*SC(2a)WQC(2a)][Y(2-aminoethoxy)][2-Nal][2-Me-Leu]E(1c)R[{d}[3-(3-Pyridyl)-Ala]]-[NH2]] ([3Amb]SCWQC[AEF][2Nal][αMeL]ER[d3Pal]-NH2; linker 3-6 via CH2COCH2; lactam N-10) |
| 0.46 nM | CC(C)C[C@]1(C)NC(=O)[C@H](Cc2ccc3ccccc3c2)NC(=O)[C@H](Cc2ccc(OCCN)cc2)NC(=O)[C@@H]2CSCC(=O)CSC[C@H](NC(=O)[C@H](CO)NC(=O)Cc3ccc(cc3)CNC(=O)CC[C@@H](C(=O)N[C@H](CCNC(=O)CCOCCOCC[N+](C)(C)C)C(N)=O)NC1=O)C(=O)N[C@@H](Cc1c[nH]c3ccccc13)C(=O)N[C@@H](CCC(N)=O)C(=O)N2 [Compound 109, [4-Aminomethyl-phenylacetyl](1c)*SC(2a)WQC(2a)[Y(2-aminoethoxy)][2-Nal][2-Me-Leu]E(1c)[{d}2,4-Diaminobutanoyl([2-(trimethyl-2-aminoethoxy)ethoxy]propyl)]-[NH2]] ([X1]SCWQC[AEF][2Nal][αMeL]E[dDab](Me3N+(CH2)2O(CH2)2O(CH2)2CO)-NH2; linker 3-6 via CH2COCH2; lactam N-10) |
| 0.922 nM | CC(=O)N[C@H]1CCCCNC(=O)CC[C@@H](C(=O)N[C@H](CCCNC(=N)N)C(N)=O)NC(=O)[C@](C)(CC(C)C)NC(=O)[C@H](Cc2ccc3ccccc3c2)NC(=O)[C@H](Cc2ccc(OCCN)cc2)NC(=O)[C@@H]2CSCC(=O)CSC[C@H](NC(=O)[C@H](CO)NC1=O)C(=O)N[C@@H](Cc1c[nH]c3ccccc13)C(=O)N[C@@H](CCC(N)=O)C(=O)N2 [Compound 84, [Ac]-K(1c)SC(2a)WQC(2a)[Y(2-aminoethoxy)][2-Nal][2-Me-Leu]E(1c)[{d}R]-[NH2]] (Ac-KSCWQC[AEF][2Nal][αMeL]E[dR]-NH2; lactam 1-10; linker 3-6 via CH2COCH2) |
